The text below walks through data of patent publication US20250320252A1 (The Scripps Research Institute, priority 2021, published 2025).

Several values for one entry are separate records, joined by “and”; a condition that tells them apart may be missing. Equal entries are not always repeated. Where two headings read alike, the source gives them in different places.

The target in one series is T1, human GLP-1R (Homo sapiens, UniProt P43220).
T1 construct: expressed in transfected cells
Put plainly: In vitro receptor activation reporter assay (CRE-Luc), HEK293-GLP-1R-CRE. The class given is cell-based. In general terms: In a reporter assay the amount or activity of a reporter protein is the signal.

The next series addresses T2, human GIPR (Homo sapiens, UniProt P48546).
T2 construct: expressed in transfected cells
T2 sequence (P48546 22-466): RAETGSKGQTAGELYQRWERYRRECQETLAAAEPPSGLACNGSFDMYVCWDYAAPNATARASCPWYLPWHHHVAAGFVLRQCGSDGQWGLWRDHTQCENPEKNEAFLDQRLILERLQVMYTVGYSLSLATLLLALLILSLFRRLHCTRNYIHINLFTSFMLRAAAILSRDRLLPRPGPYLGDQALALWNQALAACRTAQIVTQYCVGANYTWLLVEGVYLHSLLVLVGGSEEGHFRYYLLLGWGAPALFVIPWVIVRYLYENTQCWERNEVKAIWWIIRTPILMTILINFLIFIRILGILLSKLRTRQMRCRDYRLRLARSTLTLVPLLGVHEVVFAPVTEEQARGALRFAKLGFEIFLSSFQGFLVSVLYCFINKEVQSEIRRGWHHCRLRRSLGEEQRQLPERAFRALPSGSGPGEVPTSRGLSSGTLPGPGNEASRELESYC
The series can be described thus: In vitro receptor activation reporter assay (CRE-Luc), HEK293-GIPR-CRE. The class given is cell-based.

The conditions of series [1]: dog, in vivo, po.
A short description of series [2]: Pharmacokinetics in CD-1 mouse, plasma concentration by LC-MS. The class given is in vivo. Conditions: individual animals.
Method: The peptide plasma concentration at various time points was determined using LC-MS.
[3] abbreviates: unnumbered table (Table 10), average of runs, read-out: GIPR (nM) [EC50] average.
Setting [4] is: unnumbered table (Table 10), run 02/19, read-out: GIPR (nM) [EC50] 02/19.
Setting [5] is: unnumbered table (Table 10), run 03/25, read-out: GIPR (nM) [EC50] 03/25.
Setting [6] is: unnumbered table (Table 10), run 03/26, read-out: GIPR (nM) [EC50] 03/26.
[7] abbreviates: Table 9, read-out: EC50 [nM] GLP1R.
[8] abbreviates: Table 9, read-out: EC50 [nM] GIPR.

T1 sequence (P43220 24-463): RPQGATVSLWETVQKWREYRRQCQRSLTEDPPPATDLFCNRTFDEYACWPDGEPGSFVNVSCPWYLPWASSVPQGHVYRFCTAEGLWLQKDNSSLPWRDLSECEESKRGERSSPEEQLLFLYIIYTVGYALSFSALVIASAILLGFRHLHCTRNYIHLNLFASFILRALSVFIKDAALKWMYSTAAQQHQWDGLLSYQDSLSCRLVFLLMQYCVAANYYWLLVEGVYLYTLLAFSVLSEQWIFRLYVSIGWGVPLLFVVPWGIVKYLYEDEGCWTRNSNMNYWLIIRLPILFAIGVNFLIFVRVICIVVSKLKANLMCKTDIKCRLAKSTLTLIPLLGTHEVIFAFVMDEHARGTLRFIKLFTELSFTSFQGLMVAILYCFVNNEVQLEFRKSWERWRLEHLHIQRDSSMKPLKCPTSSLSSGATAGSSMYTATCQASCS
From the text for human GIPR: HEK293 cells were infected with lentivirus encoding firefly luciferase gene under the control of cAMP responsive element (CRE) promoter (Qiagen, The Netherlands) and then were selected using 1 g mL^−1 puromycin (Life Technologies, Carlsbad) for 1 week. The surviving cells (referred to as CRE-HEK293) were expanded and then transfected with a G418 selective mammalian expression plasmid encoding human GLP-1R or GIPR. In brief, GLP-1R or GIPR plasmid was transfected into CRE-HEK293 cells using Lipofectamine 2000 and selected with 400 g mL^−1 Geneticin (Life Technologies, Carlsbad, CA). Single colony stable cell line overexpressing CRE-luciferase and GLP-1R or GIPR (HEK293-GLP-1R-CRE or HEK293-GIPR-CRE) was then established for in vitro activity assay.
(§1) The EC50 of each peptide was determined using GraphPad Prism 6 software (GraphPad, San Diego, CA).
Method for human GLP-1R: as §1
HEK293 cells were infected with lentivirus encoding firefly luciferase gene under the control of cAMP responsive element (CRE) promoter (Qiagen, The Netherlands) and then were selected using 1 g/mL puromycin (Life Technologies, Carlsbad) for 1 week. The surviving cells (referred to as CRE-HEK293) were expanded and then transfected with a G418 selective mammalian expression plasmid encoding human GLP-1R. In brief, GLP-1R plasmid was transfected into CRE-HEK293 cells using Lipofectamine 2000 and selected with 400 g/mL Geneticin (Life Technologies, Carlsbad, CA). Single colony stable cell line overexpressing CRE-luciferase and GLP1R was then established for in vitro activity assay.

In the case of `CC[C@H](C)[C@H](NC(=O)[C@H](CO)NC(=O)[C@H](Cc1ccc(O)cc1)NC(=O)[C@H](CC(=O)O)NC(=O)[C@H](CO)NC(=O)[C@@H](NC(=O)[C@H](Cc1ccccc1)NC(=O)[C@@H](NC(=O)CNC(=O)[C@H](CCC(=O)O)NC(=O)C(C)(C)NC(=O)[C@@H](N)Cc1ccc(O)cc1)[C@@H](C)O)[C@@H](C)O)C(=O)N[C@@H](Cc1ccc(O)cc1)C(=O)N[C@H]1CSCC(=O)NCCN(C(=O)CCC(=O)NCCOCCOCCC(=O)NCCOCCOCCC(=O)NCCCC[C@H](NC(=O)CCCCCCCCCCCCCCCCCCC(=O)O)C(=O)O)CCNC(=O)CSC[C@@H](C(=O)N[C@@H](Cc2ccccc2)C(=O)N[C@H](C(=O)N[C@@H](CC(N)=O)C(=O)N[C@@H](Cc2c[nH]c3ccccc23)C(=O)N[C@@H](CC(C)C)C(=O)N[C@@H](CC(C)C)C(=O)N[C@@H](C)C(=O)NCC(=O)NCC(=O)N2CCC[C@H]2C(=O)N[C@@H](CO)C(=O)N[C@@H](CO)C(=O)NCC(=O)N[C@@H](C)C(=O)N2CCC[C@H]2C(=O)N2CCC[C@H]2C(=O)N2CCC[C@H]2C(=O)N[C@@H](CO)C(N)=O)C(C)C)NC(=O)C(C)(C)NC(=O)[C@H](C)NC(=O)[C@H](C)NC(=O)[C@H](CCC(N)=O)NC(=O)[C@H](CCCCN)NC(=O)[C@H](CC(=O)O)NC1=O` [C(14-21) - C20L5A, YAibEGT-FTSDY-SIYXD-KQAAAib-XFVNW-LLAGG-PSSGA-PPPS-NH2 (where each X is C)], the EC50 at human GLP-1R (Table 8, read-out: EC50 [nM] GLP1R) was 0.2 nM; at human GIPR (Table 8, read-out: EC50 [nM] GIPR), 0.05 nM; on human GIPR (setting [3]), 0.05 nM; at human GIPR (setting [4]) it was 0.07 nM; on human GIPR (setting [5]), 0.04 nM; on human GIPR (setting [6]), 0.04 nM.

For the compound `CC[C@H](C)[C@H](NC(=O)[C@H](CO)NC(=O)[C@H](Cc1ccc(O)cc1)NC(=O)[C@H](CC(=O)O)NC(=O)[C@H](CO)NC(=O)[C@@H](NC(=O)[C@H](Cc1ccccc1)NC(=O)[C@@H](NC(=O)CNC(=O)[C@H](CCC(=O)O)NC(=O)C(C)(C)NC(=O)[C@@H](N)Cc1ccc(O)cc1)[C@@H](C)O)[C@@H](C)O)C(=O)N[C@@H](Cc1ccc(O)cc1)C(=O)N[C@@H](CC(C)C)C(=O)N[C@@H](CC(=O)O)C(=O)N[C@@H](CCCCN)C(=O)N[C@H]1CSCC(=O)NCCN(C(=O)CCC(=O)NCCOCCOCCC(=O)NCCOCCOCCC(=O)NCCCC[C@H](NC(=O)CCCCCCCCCCCCCCCCCCC(=O)O)C(=O)O)CCNC(=O)CSC[C@@H](C(=O)N[C@@H](Cc2c[nH]c3ccccc23)C(=O)N[C@@H](CC(C)C)C(=O)N[C@@H](CC(C)C)C(=O)N[C@@H](C)C(=O)NCC(=O)NCC(=O)N2CCC[C@H]2C(=O)N[C@@H](CO)C(=O)N[C@@H](CO)C(=O)NCC(=O)N[C@@H](C)C(=O)N2CCC[C@H]2C(=O)N2CCC[C@H]2C(=O)N2CCC[C@H]2C(=O)N[C@@H](CO)C(N)=O)NC(=O)[C@H](C(C)C)NC(=O)[C@H](Cc2ccccc2)NC(=O)[C@H](CCC(=O)O)NC(=O)C(C)(C)NC(=O)[C@H](C)NC(=O)[C@H](C)NC1=O` [C(17-24) - C20L5A, YAibEGT-FTSDY-SIYLD-KXAAAib-EFVXW-LLAGG-PSSGA-PPPS-NH2 (where each X is C)], the EC50 at human GLP-1R (setting [7]) turned out to be 0.11 nM; on human GLP-1R (unnumbered table (Table 10), average of runs, read-out: GLP1R (nM) [EC50] average), 0.09 nM; on human GLP-1R (unnumbered table (Table 10), run 02/19, read-out: GLP1R (nM) [EC50] 02/19), 0.07 nM; on human GLP-1R (unnumbered table (Table 10), run 3/25, read-out: GLP1R (nM) [EC50] 3/25) it was 0.1 nM; at human GLP-1R (unnumbered table (Table 10), run 03/26, read-out: GLP1R (nM) [EC50] 03/26), 0.09 nM; at human GIPR (setting [8]), 0.05 nM. Besides, the EC50 at human GIPR (setting [3]) is 0.03 nM; at human GIPR (setting [4]), 0.04 nM; at human GIPR (setting [5]) it was 0.02 nM; at human GIPR (setting [6]), 0.03 nM.

Take `CC[C@H](C)[C@H](NC(=O)[C@H](CO)NC(=O)[C@H](Cc1ccc(O)cc1)NC(=O)[C@H](CC(=O)O)NC(=O)[C@H](CO)NC(=O)[C@@H](NC(=O)[C@H](Cc1ccccc1)NC(=O)[C@@H](NC(=O)CNC(=O)[C@H](CCC(=O)O)NC(=O)C(C)(C)NC(=O)[C@@H](N)Cc1ccc(O)cc1)[C@@H](C)O)[C@@H](C)O)C(=O)N[C@@H](Cc1ccc(O)cc1)C(=O)N[C@@H](CC(C)C)C(=O)N[C@@H](CC(=O)O)C(=O)N[C@@H](CCCCN)C(=O)N[C@H]1CSCC(=O)NCCN(C(=O)CCC(=O)NCCOCCOCCC(=O)NCCOCCOCCC(=O)NCCCC[C@H](NC(=O)CCCCCCCCCCCCCCCCC(=O)O)C(=O)O)CCNC(=O)CSC[C@@H](C(=O)N[C@@H](Cc2c[nH]c3ccccc23)C(=O)N[C@@H](CC(C)C)C(=O)N[C@@H](CC(C)C)C(=O)N[C@@H](C)C(=O)NCC(=O)NCC(=O)N2CCC[C@H]2C(=O)N[C@@H](CO)C(=O)N[C@@H](CO)C(=O)NCC(=O)N[C@@H](C)C(=O)N2CCC[C@H]2C(=O)N2CCC[C@H]2C(=O)N2CCC[C@H]2C(=O)N[C@@H](CO)C(N)=O)NC(=O)[C@H](C(C)C)NC(=O)[C@H](Cc2ccccc2)NC(=O)[C@H](CCC(=O)O)NC(=O)C(C)(C)NC(=O)[C@H](C)NC(=O)[C@H](C)NC1=O` [C(17-24) - L5A, YAibEGT-FTSDY-SIYLD-KXAAAib-EFVXW-LLAGG-PSSGA-PPPS-NH2 (where each X is C)]: the EC50 at human GLP-1R (setting [7]) came to 0.11 nM; at human GIPR (setting [8]) it was 0.05 nM.

In the case of `CC[C@H](C)[C@H](NC(=O)[C@H](CC(C)C)NC(=O)[C@H](Cc1c[nH]c2ccccc12)NC(=O)[C@@H]1CSCC(=O)NCCN(C(=O)CCC(=O)NCCOCCOCCC(=O)NCCOCCOCCC(=O)NCCCC[C@H](NC(=O)CCCCCCCCCCCCCCCCCCC(=O)O)C(=O)O)CCNC(=O)CSC[C@H](NC(=O)[C@H](CCCCN)NC(=O)[C@H](CC(=O)O)NC(=O)[C@H](CC(C)C)NC(=O)[C@H](Cc2ccc(O)cc2)NC(=O)[C@@H](NC(=O)[C@H](CO)NC(=O)[C@H](Cc2ccc(O)cc2)NC(=O)[C@H](CC(=O)O)NC(=O)[C@H](CO)NC(=O)[C@@H](NC(=O)[C@H](Cc2ccccc2)NC(=O)[C@@H](NC(=O)CNC(=O)[C@H](CCC(=O)O)NC(=O)C(C)(C)NC(=O)[C@@H](N)Cc2ccc(O)cc2)[C@@H](C)O)[C@@H](C)O)[C@@H](C)CC)C(=O)N[C@@H](C)C(=O)N[C@@H](C)C(=O)NC(C)(C)C(=O)N[C@@H](CCC(=O)O)C(=O)N[C@@H](Cc2ccccc2)C(=O)N[C@@H](C(C)C)C(=O)N1)C(=O)N[C@@H](C)C(=O)NCC(=O)NCC(=O)N1CCC[C@H]1C(=O)N[C@@H](CO)C(=O)N[C@@H](CO)C(=O)NCC(=O)N[C@@H](C)C(=O)N1CCC[C@H]1C(=O)N1CCC[C@H]1C(=O)N1CCC[C@H]1C(=O)N[C@@H](CO)C(N)=O` [mCMV268, YAibEGT-FTSDY-SIYLD-KXAAAib-EFVXW-LIAGG-PSSGA-PPPS-NH2 (where each X is C)], in series [1], the Bioavailability was 0.27%, 0.27%,.

Turning to `CC[C@H](C)[C@H](NC(=O)[C@H](CC(C)C)NC(=O)[C@H](Cc1c[nH]c2ccccc12)NC(=O)[C@H](CC(N)=O)NC(=O)[C@@H](NC(=O)[C@H](Cc1ccccc1)NC(=O)[C@@H]1CSCC(=O)NCCN(C(=O)CCC(=O)NCCOCCOCCC(=O)NCCOCCOCCC(=O)NCCCC[C@H](NC(=O)CCCCCCCCCCCCCCCCC(=O)O)C(=O)O)CCNC(=O)CSC[C@H](NC(=O)[C@H](Cc2ccc(O)cc2)NC(=O)[C@@H](NC(=O)[C@H](CO)NC(=O)[C@H](Cc2ccc(O)cc2)NC(=O)[C@H](CC(=O)O)NC(=O)[C@H](CO)NC(=O)[C@@H](NC(=O)[C@H](Cc2ccccc2)NC(=O)[C@@H](NC(=O)CNC(=O)[C@H](CCC(=O)O)NC(=O)C(C)(C)NC(=O)[C@@H](N)Cc2ccc(O)cc2)[C@@H](C)O)[C@@H](C)O)[C@@H](C)CC)C(=O)N[C@@H](CC(=O)O)C(=O)N[C@@H](CCCCN)C(=O)N[C@@H](CCC(N)=O)C(=O)N[C@@H](C)C(=O)N[C@@H](C)C(=O)NC(C)(C)C(=O)N1)C(C)C)C(=O)N[C@@H](C)C(=O)NCC(=O)NCC(=O)N1CCC[C@H]1C(=O)N[C@@H](CO)C(=O)N[C@@H](CO)C(=O)NCC(=O)N[C@@H](C)C(=O)N1CCC[C@H]1C(=O)N1CCC[C@H]1C(=O)N1CCC[C@H]1C(=O)N[C@@H](CO)C(N)=O` [mCMZ370, YAibEGT-FTSDY-SIYXD-KQAAAib-XFVNW-LIAGG-PSSGA-PPPS-NH2 (where each X is C)], in series [2] (1 mg/kg I.V.), the Tlast stood at 72 h. Further, in series [2] (1 mg/kg I.V., 1 mg/kg), the “AUC—%Extrap—pred” value is 0.39% and 0.38% and 0.6%; the “Cl—pred” value is given as 0.162 mL/min/kg; the “Vz—pred” value came out at 0.099 L/kg. The same compound showed a Tlast in series [2] (1 mg/kg S.C.) of 72 h. In series [2] (1 mg/kg S.C., 1 mg/kg), the “AUC—%Extrap—pred” value is 0.26% and 0.31% and 0.19%; the “AUMC—%Extrap—pred” value was found to be 0.99%; the “Cl—Fpred” value is 0.24 mL/min/kg and 0.21 mL/min/kg and 0.06 mL/min/kg; the “V—F—pred” value was 0.2 L/kg and 0.15 L/kg and 0.13 L/kg. In addition, the clearance in series [2] (mouse, in vivo, iv, 1 mg/kg, 1 mg/kg I.V., read-out: Cl—pred) came out at 0.112 mL/min/kg.
